Structures are written as SMILES.

Data on three compounds can be found in ChEMBL document CHEMBL1150907, “Epolones: novel sesquiterpene-tropolones from fungus OS-F69284 that induce erythropoietin in human cells” (1998).

In experiment [1] the test system is Hep 3B2. In words: Induction of human erythropoietin gene expression in human Hep3B cells over expressing human EPO assessed as concentration required to produce 5-fold induction ratio by luciferase reporter gene assay relative to control. The experiment is classed as functional.
Experiment [2] has as its system Hep 3B2. As to the kind of experiment: Induction of erythropoietin secretion in human Hep3B cells expressing human EPO at 10 uM by ELISA. It counts as functional. A general note: An ELISA detects its analyte on a solid surface through an enzyme-linked reagent.
Experiment [3] is described as follows: Cytotoxicity against human Hep3B cells after 48 hrs by MTT assay. The experiment is classed as functional, Hep 3B2. Background: Tetrazolium assays rely on reduction of a dye to a coloured formazan, in cell work by metabolically active cells.
The test system of experiment [4] is Hep 3B2. In words: Induction of human erythropoietin gene expression in human Hep3B cells over expressing human EPO assessed as maximum induction ratio at 6.5 uM by luciferase reporter gene assay relative to control. It counts as functional.
For experiment [5], the system named is Hep 3B2. As to the kind of experiment: Induction of human erythropoietin gene expression in human Hep3B cells over expressing human EPO assessed as maximum induction ratio at 4.3 uM by luciferase reporter gene assay relative to control. It counts as functional. A general note: Reporter assays use an easily measured gene product as a stand-in for the process of interest.

What is called IC90 is the concentration at which the effect reaches the 90% level. With `C/C1=C\CC(C)(C)/C=C/C[C@@]2(C)Oc3cc(O)c(=O)cc(C)c3C[C@@H]2C[C@H]1O` [EPOLONE B], the Activity in the experiment on Hep 3B2 [1] came out at 1.5 µM; in the experiment with Hep 3B2 [2], 40 mU/ml. In addition, the IC90 in experiment [3] was > 40 µM. The Ratio in the experiment with Hep 3B2 [4] came out at 22.
With `Cc1cc(=O)c(O)cc2c1C[C@H]1CC(C)(C)/C=C/C[C@@]3(C)Oc4cc(O)c(=O)cc(C)c4C[C@@H]3C[C@H](O)[C@]1(C)O2` [PYCNIDIONE], the Activity stood at 1.6 µM in the experiment on Hep 3B2 [1] and 34 mU/ml in the experiment with Hep 3B2 [2]. Moreover, the Ratio in the experiment on Hep 3B2 [5] stood at 19. The IC90 in experiment [3] was > 40 µM.
On the same counts, the results for `Cc1cc(=O)c(O)cc2c1C[C@H]1CC(C)(C)/C=C/C[C@@]3(C)Oc4cc(O)cc(C)c4C[C@@H]3C[C@H](O)[C@]1(C)O2` [EPOLONE A] are 1 µM, 45 mU/ml, 26 and > 40 µM.
